Read-outs that look alike come from different tables or passages of the source.
Key:
rat hepatic microsomes = conditions: for Vmax for the elimination of tofacitinib: liver microsomes, n = 3
[1] = Sprague-Dawley, rat, in vivo
in vitro [2] = conditions: rat, intestinal microsomes
in vivo = conditions: Sprague-Dawley, rat; for bioavailability: F
[3] = Pharmacokinetics after intravenous administration of tofacitinib and/or voriconazole to rats; conditions: Sprague-Dawley, rat, 10 mg/kg
Experimental: In all cases, the treatment was administered intravenously for 1 min via the jugular vein (total injection volume of 4 mL/kg). Blood samples (approximately 0.12 mL for single drug administration and 0.22 mL for co-administration of both drugs) were taken from the carotid artery at 0 (before the start of injection), 1 (right after injection), 5, 15, 30, 60, 120, 180, 240, 360, 480, 600 and/or 720 min after the start of injection. […] Urine samples, collected for 24 h following injection, and gastrointestinal tract (including its contents and feces) samples, collected 24 h after injection, were prepared in accordance with previously reported methods.

[4] = Protein binding of tofacitinib to fresh rat plasma (equilibrium dialysis); type: in vitro ADME; conditions: n = 5, read-out: Protein binding (bound fraction) (converted)
Experimental: Briefly, plasma was dialyzed against isotonic phosphate buffer (pH 7.4) in a 1 mL dialysis cell (Spectrum Medical Industries, Los Angeles, CA, USA).

[5] = cited from earlier work
[6] = tested on: Candida albicans-infected mice; conditions: long-term administration to Candida albicans-infected mice; cited from earlier work
in vitro [7] = conditions: rat, liver microsomes
[8] = oral, healthy male adults; cited from earlier work
[9] = tested on: rat intestinal microsomes
α-glycosidase = conditions: interaction with acarbose; cited from earlier work
[10] = tested on: human carbonic anhydrase 1; conditions: interaction with acetazolamide; cited from earlier work
[11] = rat hepatic microsomes, 20 μM voriconazole
[12] = pH 7.4, with voriconazole 20 μM
[13] = rat intestinal microsomes, 20 μM voriconazole

## C[C@@H]1CCN(C(=O)CC#N)C[C@@H]1N(C)c1ncnc2[nH]ccc12 [tofacitinib, Tofacitinib]
Rat hepatic microsomes; with 20 μM VCZ
  Vmax for the elimination of tofacitinib: 1184 ± 470 pmol/min/mg protein
Rat hepatic microsomes; without VCZ
  Vmax for the elimination of tofacitinib: 2895 ± 319 pmol/min/mg protein
Rat hepatic microsomes; [11]
  CLint of tofacitinib slower in the presence of voriconazole: 65.5%
  Vmax of tofacitinib elimination slower in the presence of voriconazole: 59.1%
[1]
  F: 72.4%
[1]; po
  'true' fraction of the oral dose unabsorbed (Funabs): approximately 0.162%
  Fraction of the oral dose absorbed: more than 99%
[1]; po, 20 mg/kg
  CLR: 0.310 ± 0.117 mL/min/kg
In vitro [2]; pH 7.4
  Km: 43.1 ± 11.7 µM
  microsomal CLint: 8.94 ± 1 µL/min/mg
In vitro [2]; [12]
  Km: 30.1 ± 3.29 µM
  microsomal CLint: 7.05 ± 0.12 µL/min/mg
In vivo
  bioavailability: 71.2%
In vivo; po, 20 mg/kg, CLR
  CL renal: 5.36 ± 1.35 mL/min/kg
In vivo; po, 20 mg/kg
  Tmax: 1.46 h
[3]; in vivo
  AUC: 12300 ng·h/mL
  CL renal: 3.61 ± 0.829 mL/min/kg
[3]; iv, AUC
  AUC: 4630 ng·h/mL
[3]; iv, CLR
  CL renal: 1.44 ± 0.678 mL/min/kg
[3]; iv, Vss
  Vd: 1.21 ± 0.489 L/kg
[4]; pH 7.4, tofacitinib 5 μg/mL in the absence of voriconazole
  fraction unbound at 8 h, 5 μg/mL: 0.621
[4]; pH 7.4, tofacitinib 5 μg/mL in the presence of voriconazole 5 μg/mL
  fraction unbound at 8 h, 5 μg/mL: 0.639
[5]; tofacitinib oral, healthy subjects
  Volume of distribution: 1.24 L/kg
[5]; tofacitinib, healthy subjects
  Plasma protein binding: approximately 40%
[5]; tofacitinib, humans
  Absolute oral bioavailability (F): approximately 74%
  Fraction processed by CYP2C19: 20%
  Fraction processed by CYP3A4: about 50%
[6]
  Survival rate of infected mice: significantly reduce their survival rate
In vitro [7]; pH 7.4
  Km: 124 ± 13.7 µM
  microsomal CLint: 23.3 ± 0.689 µL/min/mg
In vitro [7]; [12]
  Km: 147 ± 43.4 µM
  microsomal CLint: 8.05 ± 2.01 µL/min/mg
[8]
  AUC of tofacitinib higher when co-administered with fluconazole: 79%
  AUC of tofacitinib higher when combined with ketoconazole: 103%
[9]; intestinal microsomes, with 20 μM VCZ, n = 3
  Vmax for the elimination of tofacitinib: 212 ± 27.0 pmol/min/mg protein
[9]; intestinal microsomes, without VCZ, n = 3
  Vmax for the elimination of tofacitinib: 380 ± 86.1 pmol/min/mg protein
[9]; [13]
  CLint of tofacitinib slower in the presence of voriconazole: 21.1%
  Vmax of tofacitinib elimination slower in the presence of voriconazole: 44.2%

## C[C@@H](c1ncncc1F)[C@](O)(Cn1cncn1)c1ccc(F)cc1F [voriconazole, Voriconazole]
α-glycosidase
  Type of inhibition of α-glycosidase: non-competitive inhibition
Rat hepatic microsomes; Lineweaver–Burk and Dixon plots, rat hepatic microsomes
  Manner of inhibition of tofacitinib metabolism by voriconazole: non-competitive manner
[1]
  F: 122%
[10]
  Type of inhibition of human carbonic anhydrase 1: non-competitive inhibition
In vivo
  bioavailability: 106%
In vivo; po, 20 mg/kg, AUC
  AUC: 65600 ng·h/mL
In vivo; po, 20 mg/kg, Cmax
  Cmax: 7820 ± 1130 ng/mL
In vivo; po, 20 mg/kg
  Tmax: 4.38 h
[3]; iv
  MRT: 6.67 ± 2.48 h
[3]; iv, AUC
  AUC: 31000 ng·h/mL
[3]; iv, MRT
  MRT: 7.03 h
[3]; iv, Terminal half-life
  half-life: 5.23 ± 1.61 h
[5]; human, in vivo
  F: over 90%
  Protein binding: approximately 58%
  half-life: approximately 6 h
[9]; rat intestinal microsomes
  Manner of inhibition of tofacitinib metabolism by voriconazole: non-competitive manner
[9]; read-out: Apparent Ki of voriconazole for the inhibition of tofacitinib metabolism, intestinal microsomes, non-competitive model, n = 3
  Ki: 26.2 ± 8.05 µM

From PMC8157262 (Pharmaceutics, 2021)
